# Measurements reported in patent US20120122820A1, “PRODRUGS AND THE USE THEREOF” (Bayer Schering Pharma Aktiengesellschaft, priority 2007, published 2012).
# Where a name gives a salt, the structure may show the parent alone.
# Test: Stability in buffer at various pH values
# Format: physicochemical
# Description: 0.3 mg of the test substance is weighed into a 2 ml HPLC vial and 0.5 ml of acetonitrile or acetonitrile/DMSO (9:1) is added. The substance is dissolved by putting the sample vessel in an ultrasonic bath for about 10 seconds. Then 0.5 ml of the respective (buffer) solution is added, and the sample is again treated in the ultrasonic bath.
# • pH 4: 1 liter of Millipore water is adjusted to pH 4.0 with 1 N hydrochloric acid; • pH 5: 0.096 mol of citric acid and 0.2 mol of sodium hydroxide ad 1 liter of water; • pH 7.4: 90.0 g of sodium chloride, 13.61 g of potassium dihydrogen phosphate and 83.35 g of 1 N sodium hydroxide solution are made up to 1 liter with water; this solution is then further diluted 1:10 with Millipore water. • pH 8: 0.013 mol of borax and 0.021 mol of hydrochloric acid ad 1 liter of water.
# 5 μl portions of the sample solution are analyzed by HPLC for their content of unchanged test substance, and of parent substance (A) produced, every hour over a period of 24 hours at 37° C. The percentage areas of the appropriate peaks are used for quantification.
# HPLC method for Examples 1-21:
# Agilent 1100 with DAD (G1314A), binary pump (G1312A), autosampler (G1329A), column oven (G1316A), thermostat (G1330A); column: Kromasil 100 C18, 60 mm×2.1 mm, 3.5 μm; column temperature: 30° C.; eluent A: water+5 ml of perchloric acid/liter, eluent B: acetonitrile; gradient: 0-1.0 min 98% A, 2% B; 1.0-9.0 min 2% A, 98% B; 9.0-13.0 min 2% A, 98% B; 13.0-13.5 min 98% A, 2% B; 13.5-15.0 min 98% A, 2% B; flow rate: 0.75 ml/min; UV detection: 210 nm.
# HPLC method for Examples 22-40:
# The ratios of the peak areas (F) at the respective time points in relation to the peak areas at the starting time are shown in Table 3 for representative exemplary embodiments: […]
"% test substance after 4 h [F(t = 4 h) × 100/F(t = 0 h)] (pH 4, 37° C.) [%]","% test substance after 24 h [F(t = 24 h) × 100/F(t = 0 h)] (pH 4, 37° C.) [%]","% test substance after 4 h [F(t = 4 h) × 100/F(t = 0 h)] (pH 8, 37° C.) [%]","% test substance after 24 h [F(t = 24 h) × 100/F(t = 0 h)] (pH 8, 37° C.) [%]","% test substance after 4 h [F(t = 4 h) × 100/F(t = 0 h)] (pH 7.4, 37° C.) [%]","% test substance after 24 h [F(t = 24 h) × 100/F(t = 0 h)] (pH 7.4, 37° C.) [%]","% test substance after 24 h [F(t = 24 h) × 100/F(t = 0 h)] (pH 4, 37° C., dihydrochloride) [%]","% test substance after 24 h [F(t = 24 h) × 100/F(t = 0 h)] (pH 7.4, 37° C., dihydrochloride) [%]",SMILES
100,100,96,76,,,,,"N#Cc1c(N)nc(SCc2csc(-c3ccc(Cl)cc3)n2)c(C#N)c1-c1ccc(OCCOC(=O)[C@@H](N)CCCCN)cc1 [Example 14, 2-{4-[2-Amino-6-({[2-(4-chlorophenyl)-1,3-thiazol-4-yl]methyl}thio)-3,5-dicyanopyridin-4-yl]-phenoxy}ethyl L-lysinate dihydrochloride]"
100,100,100,100,,,,,"N#Cc1c(N)nc(SCc2csc(-c3ccc(Cl)cc3)n2)c(C#N)c1-c1ccc(OCCOC(=O)[C@@H](N)Cc2ccccc2)cc1 [Example 16, 2-{4-[2-Amino-6-({[2-(4-chlorophenyl)-1,3-thiazol-4-yl]methyl}thio)-3,5-dicyanopyridin-4-yl]-phenoxy}ethyl L-phenylalaninate hydrochloride]"
100,99,,,100,96,,,"CC(C)[C@H](N)C(=O)OCCOc1ccc(-c2c(C#N)c(N)nc(SCc3csc(-c4ccc(Cl)cc4)n3)c2C#N)cc1 [Example 23, 2-{4-[2-Amino-6-({[2-(4-chlorophenyl)-1,3-thiazol-4-yl]methyl}thio)-3,5-dicyanopyridin-4-yl]-phenoxy}ethyl L-valinate dihydrochloride]"
100,100,,,100,100,,,"N#Cc1c(N)nc(SCc2csc(-c3ccc(Cl)cc3)n2)c(C#N)c1-c1ccc(OCCOC(=O)CCC(=O)O)cc1 [Example 28, 2-Hydroxy-N,N,N-trimethylethanaminium 4-(2-{4-[2-amino-6-({[2-(4-chlorophenyl)-1,3-thiazol-4-yl]methyl}thio)-3,5-dicyanopyridin-4-yl]phenoxy}ethoxy) 4-oxobutanoate]"
100,97,,,100,97,,,"CN(C)CC(=O)Nc1nc(SCc2csc(-c3ccc(Cl)cc3)n2)c(C#N)c(-c2ccc(OCCOC(=O)CN(C)C)cc2)c1C#N [Example 34, 2-(4-{2-({[2-(4-Chlorophenyl)-1,3-thiazol-4-yl]methyl}thio)-3,5-dicyano-6-[(N,N-dimethylglycyl)-amino]pyridin-4-yl}phenoxy)ethyl N,N-dimethylglycinate]"
,,,,,,100,98,"CN(C)CC(=O)Nc1nc(SCc2csc(-c3ccc(Cl)cc3)n2)c(C#N)c(-c2ccc(OCCOC(=O)CN(C)C)cc2)c1C#N [Example 35, 2-(4-{2-({[2-(4-Chlorophenyl)-1,3-thiazol-4-yl]methyl}thio)-3,5-dicyano-6-[(N,N-dimethylglycyl)-amino]pyridin-4-yl}phenoxy)ethyl N,N-dimethylglycinate dihydrochloride]"
